Patent publication US7034208B1, “Ahas inhibiting herbicide resistant wheat and method for selection thereof” (BASF Aktiengellschaft, priority 1991, dated 2006)

Key:
[1] = tested on: testcross progeny Fidel x (Fidel/FS1-FS4); test: Genetic Condition Studies Experiment 3, testcrosses back to Fidel; assay type: in vivo, wheat; conditions: out of 49 test-cross progeny sprayed; 200 g/ha; rated three and one-half weeks later
Source text: Experiment 3: Testcrosses of the F1 hybrids (described in Experiment 1) back to Fidel are sprayed with 200 g/ha of PURSUIT™. The following testcrosses are planted in 6 inch azalea pots in Metro Mix 350™. The number of pots planted per cross is indicated by the number after the cross:
Approximately one month later, the plants are sprayed (except for Fidel). PURSUIT™ (200 g/ha) is applied as previously described. The plants are rated three and one-half weeks later.

[2] = tested on: F1 hybrids FS1-FS4 x Fidel and Fidel wheat; test: Genetic Condition Studies Experiment 1, F1 hybrids sprayed; assay type: in vivo
Source text: Experiment 1: Six flats containing Metro Mix 350™ are planted with F1 hybrids derived from each of the following crosses: FS1×Fidel: FS2×Fidel; FS3×Fidel; FS4×Fidel and Fidel (susceptible, parental cultivar). One week later, the flats are sprayed, one flat per herbicide rate, with PURSUIT™ at 50, 100, 150, 200, and 250 g/ha to determine the genetic condition of the herbicide resistant trait in the selections, FS1-FS4. The herbicide is applied with a laboratory belt sprayer at a rate of 950 L/ha with a belt speed of 12.5 sec/rev using sprayer nozzle #40015E. Tween 20™ is used as the surfactant at 0.25% v/v in the herbicide solutions. Plants are rated 10 days after herbicide treatment.

wheat seeds = test: Seed soak screen (Example 1, Step 1, Experiments 1-4); assay type: in vivo
Procedure: The seeds are rinsed in sterile distilled water and then soaked in a herbicide concentration for a set period of time, as described below. Sets of twenty-five seeds are placed into 25 ml of the herbicide solution described below in a sterile 100×15 mm plastic petri dish and soaked for the designated time. The seeds are rinsed with water, dried with paper towels and planted (25 seeds/flat) approximately ½″ deep in 6×8 inch peat flats containing a moist, sterile, artificial soil, Metro Mix 350™ (Grace Company, Cambridge, Mass.). The treatments are evaluated at four weeks after treatment. The herbicides, rates and time periods evaluated are described below:
Each treatment is replicated four times.
Each treatment is replicated two times.
The protocol is as described above except that 35 seeds are soaked per petri dish; 25 seeds are still planted per flat. This experiment is repeated twice.

[3] = tested on: mutant wheat selections FS1-FS4 and Fidel; assay type: in vivo; conditions: postemergence
Source text: This greenhouse test examines the level and spectrum of herbicide resistance of the mutant selections at the whole plant level. […] These lines are bulked according to their parental lines: FS1, FS2, FS3 and FS4. Fidel (wild-type) is used is a control and for performance comparison purposes. Five seeds from each of these lines (including Fidel) are planted per pot in six inch Azalea pots and are later thinned to three plants per pot. Three replicates are used per treatment (chemical and rate) for each line, and six replicates per wheat line are used as untreated controls. Plants are sprayed postemergence, 10 days after planting, with the following herbicides and rates: […]

[4] = tested on: wheat variety Fidel and resistant selections FS2 and FS4; test: Preemergence Herbicide Tolerance; assay type: in vivo; conditions: pre-emergence application; plant growth after four weeks; versus Fidel
[5] = tested on: AHAS (acetohydroxyacid synthase); test: AHAS Enzyme Assay I and II (M4 Plants); assay type: biochemical, wheat
Procedure: Enzyme Extraction: For the extraction of AHAS, 10 grams of tissue are powdered in liquid nitrogen and then homogenized in 100 mM potassium phosphate buffer (pH 7.5) containing 10 mM pyruvate, 5 mM MgCl2, 5 uM EDTA, 100 uM FAD, 1 mM valine, 1 mM leucine, 10% glycerol, and 10 mM cysteine. The homogenate is filtered through a nylon cloth (53 uM mesh) and centrifuged at 25,000 g for 20 minutes. The supernatant fraction is brought to 50% saturation with respect to (NH4)2SO4 and allowed to stand for 20-30 minutes on ice. It is then centrifuged at 25,000 g for 20 minutes and the supernatant is discarded. The ammonium sulfate pellet is dissolved in 50 mM potassium phosphate buffer (pH 7.5) containing 1 mM EDTA and 100 mM NaCl and used for the assay procedures.
AHAS Assay: AHAS activity is measured by estimation of the product, acetolactate, after conversion by decarboxylation in the presence of acid to acetoin. Standard reaction mixtures contain the enzyme in 50 mM potassium phosphate buffer (pH 7.0) containing 100 mM sodium pyruvate, 10 mM MgCl2, 1 mM thiamine pyrophosphate, and 10 uM FAD. This mixture is incubated at 37° C. for one hour after which time the reaction is stopped with the addition of […] to make a final concentration of 0.85% […] in the tube. The reaction product is allowed to decarboxylate at 60° C. for 15 minutes. The acetoin formed is determined by incubating with creatine (0.17%) and 1-napthol (1.7% in 4N NaOH) by the method of Westerfield (Westerfield, W. W., J. Biol. Chem., 161, 495-502 (1945)). Maximum color is observed by incubation at 60° C. for 15 minutes and then further incubation at room temperature for 15 minutes. The absorption of color complex is measured at 520 nm. Appropriate checks of direct acetoin formation during the enzyme assay are made. Each assay is run at least in duplicate and the experiments are repeated a minimum of two times.
Herbicide Application: Two flats are planted with approximately 100 seeds of each wheat selection (FS1, FS2, and FS4) and Fidel in sterile Metro Mix 350. Ten days later, each flat is sprayed postemergence with 62.5 g/ha of PURSUIT™. The spray delivery rate is 400 L/ha with a belt speed of 8.2 sec/rev using nozzle #65015E. Tween 20™ is used as a surfactant at 0.25% v/v. The plants are harvested three days later and assayed for AHAS activity.
Enzyme Extraction and AHAS Assay: As previously described.
Herbicide Application: As described above (Enzyme Assay I) except that the spray delivery rate is 950 l/ha with a belt speed of 12.8 sec/rev using nozzle #40015E.

## CCc1cnc(C2=NC(C)(C(C)C)C(=O)N2)c(C(=O)O)c1 (stereo not drawn) [PURSUIT, 5-ethyl-2-(4-isopropyl-4-methyl-5-oxo-2-imidazolin-2-yl)-nicotinic acid]
[1]
  test-cross progeny killed: 20
  test-cross progeny that survive: 29
[2]; Fidel, rated 10 days after treatment
  rate at which Fidel is killed: 150 g/ha
[2]; Fidel, rates of 50 and 100 g/ha
  damage to Fidel: severely injured
[2]; hybrids FS1-FS4 x Fidel, 250 g/ha, rated 10 days after treatment
  damage to F1 hybrids: stunted but not killed
Wheat seeds; seed soak for 72 hours
  concentration that prevents the survival of potential false positives: 1000 µM
Wheat seeds; seed soak for 96 hours
  concentration that prevents the survival of potential false positives: 750 µM
[3]; mutant wheat FS1-FS4, plant growth four weeks after treatment
  rate to which the mutant wheat is resistant: more than 320 g/ha
[3]; mutant wheat FS1-FS4 versus Fidel, four weeks after treatment
  increased tolerance of mutant wheat: ~8 fold
[4]
  increased tolerance of FS2 and FS4: approximately 8 fold
[5]; homozygous resistant mutant lines, unsprayed plants, compared to Fidel enzyme
  resistance of AHAS activity to inhibition: moderate levels of resistance
[5]; selections sprayed with 62.5 g/ha PURSUIT, compared to sprayed Fidel
  resistance of AHAS activity to inhibition: significantly higher level of resistance
